In PMC7755424 (Journal of medicinal chemistry, 2020):
Converted amounts (≈) assume the structure as drawn.

Key:
[1] = Solubility by light scattering; type: physicochemical; details: 1% DMSO:99% PBS buffer
human sEH = target: T1, human sEH (Homo sapiens, UniProt P34913); assay: sEH inhibition, fluorescent-based assay; type: biochemical; details: for reduction of the potency (hsEH) relative to 12: compared with 12
T1 sequence (P34913 1-555): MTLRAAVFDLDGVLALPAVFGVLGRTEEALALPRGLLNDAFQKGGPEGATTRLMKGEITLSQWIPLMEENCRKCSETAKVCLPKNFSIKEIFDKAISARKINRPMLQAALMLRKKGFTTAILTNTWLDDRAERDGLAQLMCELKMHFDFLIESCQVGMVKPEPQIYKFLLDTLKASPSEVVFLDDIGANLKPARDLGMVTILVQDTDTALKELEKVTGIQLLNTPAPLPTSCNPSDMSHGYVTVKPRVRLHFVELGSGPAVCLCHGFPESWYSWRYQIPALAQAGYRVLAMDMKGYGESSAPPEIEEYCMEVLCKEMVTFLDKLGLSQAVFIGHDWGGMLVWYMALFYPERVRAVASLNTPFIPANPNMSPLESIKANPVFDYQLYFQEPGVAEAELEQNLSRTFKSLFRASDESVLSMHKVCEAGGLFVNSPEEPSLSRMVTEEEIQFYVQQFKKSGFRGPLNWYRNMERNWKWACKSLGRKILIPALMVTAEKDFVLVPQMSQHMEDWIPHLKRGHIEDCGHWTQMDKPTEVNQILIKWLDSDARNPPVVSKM

hERG channel = hERG channel (Homo sapiens, UniProt Q12809); assay: hERG inhibition; details: at 10 μM
[2] = tested on: Peripheral Blood Mononuclear Cells (PBMC); assay: Cytotoxicity in PBMCs cells + 1.5% PHA; type: cell-based; details: highest concentration tested (20 μM)
[3] = tested on: human recombinant cytochrome P450 enzymes, mainly CYP1A2, CYP2C9, CYP2C19, CYP2D6 and CYP3AE; assay: Cytochrome P450 inhibition assay; type: in vitro ADME
hLOX-5 = target: T2, hLOX-5 (Homo sapiens, UniProt P09917); assay: Inhibition of human lipoxygenase-5; type: biochemical; details: selectivity
T2 sequence (P09917 1-674): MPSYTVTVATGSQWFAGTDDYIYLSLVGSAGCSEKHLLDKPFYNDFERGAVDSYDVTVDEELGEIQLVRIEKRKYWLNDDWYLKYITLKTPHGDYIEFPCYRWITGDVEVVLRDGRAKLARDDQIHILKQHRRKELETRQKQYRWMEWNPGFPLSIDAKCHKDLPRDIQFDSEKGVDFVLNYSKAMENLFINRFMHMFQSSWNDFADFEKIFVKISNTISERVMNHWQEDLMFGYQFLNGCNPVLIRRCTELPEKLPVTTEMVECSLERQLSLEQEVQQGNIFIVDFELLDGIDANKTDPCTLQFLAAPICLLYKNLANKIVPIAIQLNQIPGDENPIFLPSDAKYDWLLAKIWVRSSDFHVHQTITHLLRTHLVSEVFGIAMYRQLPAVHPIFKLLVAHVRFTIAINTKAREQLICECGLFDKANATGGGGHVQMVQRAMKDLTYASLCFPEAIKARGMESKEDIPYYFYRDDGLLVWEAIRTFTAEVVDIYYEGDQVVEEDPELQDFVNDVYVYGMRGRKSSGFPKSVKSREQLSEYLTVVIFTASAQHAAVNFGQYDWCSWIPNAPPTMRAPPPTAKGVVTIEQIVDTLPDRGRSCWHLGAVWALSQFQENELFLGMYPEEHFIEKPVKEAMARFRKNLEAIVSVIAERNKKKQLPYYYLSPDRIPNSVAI

cerulein-induced AP [4] = assay: In vivo efficacy, cerulein-induced AP, post-induction; design: species or system C57BL/6J mice; details: for inflammatory (TNF-α, IL-1β and MCP-1) and ER stress (ATF3) markers mRNA: post-induction, vs cerulein only
[5] = Pharmacokinetic study in mouse; details: IP, 1 mg/kg
[6] = tested on: AR42J pancreatic acinar rat cell line; assay: In vitro proof of concept: cerulein-induced AP in AR42J cells; type: cell-based; details: 60 μM, cerulein 10 nM
cerulein-induced AP [7] = assay: In vivo efficacy, cerulein-induced AP, pre-induction; design: species or system C57BL/6J mice
[8] = Maximum tolerated dose study; type: in vivo; details: mice, ip daily, 5, 10, 20 and 80 mg/kg, five consecutive days

hERG channel, sequence (Q12809 whole entry): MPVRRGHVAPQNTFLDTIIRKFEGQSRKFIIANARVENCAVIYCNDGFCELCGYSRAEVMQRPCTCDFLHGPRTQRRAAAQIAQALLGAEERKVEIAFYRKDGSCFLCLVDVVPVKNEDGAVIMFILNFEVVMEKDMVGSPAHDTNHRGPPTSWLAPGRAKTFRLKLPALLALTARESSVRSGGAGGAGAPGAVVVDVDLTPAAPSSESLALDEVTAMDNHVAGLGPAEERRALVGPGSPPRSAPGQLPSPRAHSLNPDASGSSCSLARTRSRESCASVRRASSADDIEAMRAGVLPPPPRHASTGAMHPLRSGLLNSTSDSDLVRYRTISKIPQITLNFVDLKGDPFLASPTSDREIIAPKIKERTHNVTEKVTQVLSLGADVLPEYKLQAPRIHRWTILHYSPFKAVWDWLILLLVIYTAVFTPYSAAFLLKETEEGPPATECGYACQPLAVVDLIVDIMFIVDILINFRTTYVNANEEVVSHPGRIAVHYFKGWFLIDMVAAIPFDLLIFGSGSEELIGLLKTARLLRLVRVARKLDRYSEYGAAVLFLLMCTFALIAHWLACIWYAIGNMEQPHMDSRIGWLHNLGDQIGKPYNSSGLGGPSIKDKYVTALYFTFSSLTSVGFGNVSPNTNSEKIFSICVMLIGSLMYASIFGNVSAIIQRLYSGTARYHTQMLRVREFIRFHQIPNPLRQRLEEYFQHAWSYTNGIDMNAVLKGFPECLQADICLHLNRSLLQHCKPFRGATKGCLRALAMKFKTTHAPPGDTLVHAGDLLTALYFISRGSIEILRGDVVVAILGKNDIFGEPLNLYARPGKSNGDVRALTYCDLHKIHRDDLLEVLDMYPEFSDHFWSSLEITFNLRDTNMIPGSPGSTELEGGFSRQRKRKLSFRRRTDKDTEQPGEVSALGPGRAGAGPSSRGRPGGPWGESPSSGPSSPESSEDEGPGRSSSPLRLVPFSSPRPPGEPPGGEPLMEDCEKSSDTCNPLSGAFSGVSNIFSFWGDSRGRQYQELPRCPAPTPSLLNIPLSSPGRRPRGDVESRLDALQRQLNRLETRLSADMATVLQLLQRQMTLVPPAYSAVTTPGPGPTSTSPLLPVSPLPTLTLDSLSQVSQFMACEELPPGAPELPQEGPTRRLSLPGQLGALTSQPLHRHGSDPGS

## CC(=O)N1CCC(NC(=O)NC23CC4CC(CC(C4)C2)C3)CC1 [Compound 1, 1-(1-Acetyl-piperidin-4-yl)-3-adamantan-1-yl-urea]
[1]
  solubility at 2 h: 24 µM (≈ 7.67 µg/mL)

## O=C(Nc1ccc(F)c(F)c1F)NC12CC3CC(C1)OC(C3)C2 [Compound 4, 1-(2-oxaadamant-5-yl)-3-(2,3,4-trifluorophenyl)urea]
Human sEH
  IC50: 47.4 nM

## O=C(Nc1ccc(F)c(F)c1F)NC12OC3C4C5CC(C6C5C3C61)C42 (stereo not shown) [Compound 9, 1-(4-oxahexacyclo[5.4.1.0^2,6.0^3,10.0^5,9.0^8,11]dodecan-3-yl)-3-(2,3,4-trifluorophenyl)urea]
Human sEH
  IC50: 31.3 nM

## CC(=O)N1CCC(NC(=O)NC23CC4CC(CC(C4)O2)C3)CC1 [Compound 12, 1-(1-acetylpiperidin-4-yl)-3-(oxaadamant-1-yl)urea]
hERG channel
  inhibition on hERG: minimal inhibition
[2]
  cytotoxicity in the PBMC: not cytotoxic
[3]
  potency inhibiting the different cytochromes tested: higher than 10 μM

## O=C(NC1CCN(Cc2ccccc2)CC1)NC12CC3CC(CC(C3)O1)C2 [Compound 15, 1-(2-Oxaadamant-1-yl)-3-(1-benzylpiperidin-4-yl)urea]
Human sEH
  reduction of the potency (hsEH) relative to 12: ~40 fold

## O=C(NC1CCN(C(=O)C2CCOCC2)CC1)NC12CC3CC(CC(C3)O1)C2 [Compound 19, 1-(2-Oxaadamant-1-yl)-3-(1-(tetrahydro-2H-pyran-4-carbonyl)piperidin-4-yl)urea]
Human sEH
  reduction of the potency (hsEH) relative to 12: 10–15 fold

## O=C(NC1CCN(C(=O)c2cccnc2)CC1)NC12CC3CC(CC(C3)O1)C2 [Compound 20, 1-(2-Oxaadamant-1-yl)-3-(1-nicotinoylpiperidin-4-yl)urea]
Human sEH; 3-pyridyl vs 2-fluorophenyl (21)
  drop in inhibitory activity (hsEH) relative to 21: 3 folds

## O=C(NC1CCN(C(=O)c2ccccc2F)CC1)NC12CC3CC(CC(C3)O1)C2 [Compound 21, 1-(2-Oxaadamant-1-yl)-3-(1-(2-fluorobenzoyl)piperidin-4-yl)urea]
hLOX-5
  inhibition of hLOX-5: displayed significant inhibition
[2]
  cytotoxicity in the PBMC: not cytotoxic

## CC(C)S(=O)(=O)N1CCC(NC(=O)NC23CC4CC(CC(C4)O2)C3)CC1 [Compound 22, 1-(2-Oxaadamant-1-yl)-3-(1-(isopropylsulfonyl)piperidin-4-yl)urea]
cerulein-induced AP [4]; 3 mg/kg
  inflammatory (TNF-α, IL-1β and MCP-1) and ER stress (ATF3) markers mRNA: did not cause a significant reduction
cerulein-induced AP [4]; 30 mg/kg
  inflammatory (TNF-α, IL-1β and MCP-1) and ER stress (ATF3) markers mRNA: significant reduction
cerulein-induced AP [4]; treated after the induction of AP
  cerulein-induced edema and inflammation (H&E histology): significant decrease
[5]
  Cl: 28.41 L/h/kg
hERG channel
  inhibition on hERG: minimal inhibition
hLOX-5
  inhibition of hLOX-5: displayed significant inhibition
[6]
  increase in the expression of IL-6, CHOP and TRB3 caused by cerulein: completely abolished
  increment in TNF-α caused by cerulein exposure: strongly attenuated
[2]
  cytotoxicity in the PBMC: not cytotoxic
[3]
  potency inhibiting the different cytochromes tested: higher than 10 μM
cerulein-induced AP [7]; pre-induction, 30 mg/kg
  increase of inflammatory (TNF-α, IL1-β and MCP-1) and ER stress (ATF3) markers produced by cerulein: significantly reduced
cerulein-induced AP [7]; treated before the induction of AP
  cerulein-induced edema and inflammation (H&E histology): significant decrease
[8]
  toxic effects (body weight, behavior problems, petechiae): No toxic effects were observed

## O=C(NC1CCN(C(=O)C2CC2)CC1)NC12CC3CC(CC(C3)O1)C2 [Compound 23, 1-(2-Oxaadamant-1-yl)-3-(1-(cyclopropanecarbonyl)-piperidin-4-yl)urea]
Human sEH
  reduction of the potency (hsEH) relative to 12: 10–15 fold

## CCC(=O)N1CCC(NC(=O)NC23CC4CC(CC(C4)O2)C3)CC1 [Compound 24, 1-(2-Oxaadamantan-1-yl)-3-(1-propionylpiperidin-4-yl)urea]
hLOX-5
  inhibition of hLOX-5: displayed significant inhibition
Human sEH
  reduction of the potency (hsEH) relative to 12: 10–15 fold

## CS(=O)(=O)N1CCC(NC(=O)NC23CC4CC(CC(C4)O2)C3)CC1 [Compound 26, 1-(2-Oxaadamantan-1-yl)-3-(1-(methylsulfonyl)piperidin-4-yl)urea]
Human sEH
  reduction of the potency (hsEH) relative to 12: eight
